The values that follow come from patent US20150307850A1, “CONDITIONAL REPLICATING VIRAL VECTORS” (priority 2012, published 2015).

For test [1], the target named is FKBP (Homo sapiens, UniProt P62942, F37V). To be noted: F36V FKBP derivative vs wild-type FKBP; cited from earlier work.
For test [2], the system named is ARPE-19 cells. Description: Shield-1 concentration dependent progeny virus production (TCID50 assay). The class given is cell-based, human. Conditions: FKBP derivative fused to UL51 or UL52. As for the experimental part:
FKBP fusion proteins used in this study comprise an essential protein (IE1/2, UL51, UL52, UL79, UL84, UL87, IE1/2-UL51) fused to an FKBP derivative (ddIE1/2, ddUL51, ddUL52, ddUL79, ddUL84, ddUL87, and ddIE1/2-UL51). ARPE-19 cells were infected with the various rdCMV viruses comprising the noted fusion proteins, at a multiplicity of 0.01 PFU/cell for 1 hour, washed twice with fresh medium, and incubated in the growth medium containing 0, 0.05, 0.1 0.5 or 2 μM of Shield-1. Seven days post infection, the cell free virus was collected, and virus titers were determined by TCID50 assay on ARPE-19 cells in the presence of 2 μM of Shield 1.
Varying concentrations of Shld-1 were used in additional experiments to further assess viral replication in the presence or absence of Shld-1. ARPE-19 cells were infected by the gH expressing CMV that also contained a FKBP derivative fused to an essential protein at MOI of […]. After infection for 1 hour, the cells were washed twice with fresh medium to remove Shld-1. […] Virus titers were determined by a 50% Tissue Culture Infective Dose (TCID50) assay. Briefly, this dilution assay quantifies the amount of virus required to kill 50% of infected hosts. […] After incubation, the percentage of cell death (i.e. infected cells) was manually observed and recorded for each virus dilution. […]

Molecules are shown by their SMILES.

Chain of FKBP (P62942 2-108 F37V limits assumed): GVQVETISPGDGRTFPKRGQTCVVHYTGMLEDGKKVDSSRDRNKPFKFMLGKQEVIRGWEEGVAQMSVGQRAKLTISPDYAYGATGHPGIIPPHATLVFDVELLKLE

As to `CC[C@H](C(=O)N1CCCC[C@H]1C(=O)O[C@H](CCc1ccc(OC)c(OC)c1)c1cccc(OCCN2CCOCC2)c1)c1cc(OC)c(OC)c(OC)c1` [Shield-1], the “Binding to the F36V derivative compared to wild-type FKBP (tighter)” value in test [1] is “about 1,000 fold”. Besides, the “Shield-1 concentration that can effectively turn on or off viral replication” value in test [2] is 50 nM.
